Drawing on patent publication US10287259B2, “Selenazolidine and thiazolidine compounds for treating cancer and other diseases” (The Penn State Research Foundation, priority 2016, dated 2019), this text covers IC50, dead cells and cell cycle effect for 1 compound.

Common to all, as to format: cell-based
One assay has as its system BxPC3 cells. The assay can be described thus: MTT cell viability assay, BxPC3. The following applies: Homo sapiens, BXPC-3, different time points (24, 48, 72 h). How it is done: MTT (3-(4,5-dimethylthiazol-2-yl)-2,5-diphenyltetrazolium) assay was performed to determine the effect of AS-10 on cancer cell viability (Plano et al., 2016, J. Med. Chem. 1946-1959; Alcolea et al., 2012, Eur. J. Med. Chem. 113:134-144; Kumar et al., 2014, Eur. J. Med. Chem. 81:267-276). Briefly, 3×10^3 cells were treated with different concentrations of AS-10 in triplicate in a 96-well plate for different time points. MTT solution (20 μL of 5.0 mg/mL solution) was added to each well, three hours prior to termination time point and incubated at 37° C. Resultant formazan crystals, at termination time point, were dissolved in 50 μL DMSO. The plate was subjected to a 96-well multiscanner (Dynex Technologies, MRX Revelation; Chantilly, Va., USA) for measuring the optical densities at 570 nm and 630 nm. IC50 values were determined by performing non-linear regression using Graphpad Prism software.
To test the anti-cancer activity of AS-10 in pancreatic cancer (PC) cell lines, a MTT assay was performed. PC cell lines, Panc-1 and BxPC3, were treated with AS-10 at different doses at different time points (24, 48, and 72 h). Resulting cells were subjected to MTT cell viability assay. […] After 48 h, live cells were counted and plated in a new petri dish. […] At the end of 17 days the colonies were counted and compared to the untreated cells.
In general terms: Tetrazolium dyes change colour on reduction, which living cells bring about.

For assay [1], the system named is Panc-1 cells. The assay can be described thus: Live/dead assay with calcein-AM and ethidium bromide. As to conditions: Panc-1, 48 h; AS-10 2.5 μM, gemcitabine 50 μM. How it is done: To determine the dead cell population, we used LIVE/DEAD Viability/Cytotoxicity Kit (L3224, Life technologies, USA). Panc-1 cells were treated with either DMSO, gemcitabine (50 μM), or AS-10 (2.5 μM) or in combination for 48 h. Live and dead cells were determined by subjecting treated cells to LIVE/DEAD Viability/Cytotoxicity Kit (Plano et al., 2016, J. Med. Chem. 1946-1959). […] While ethidium homodimer-1 can only enter cells who have lost their plasma membrane integrity or dead cells and fluorescents red. Stained cells were visualized using a fluorescence microscope (Zeiss—Axio Scope.A1) with a 20× objective lens. Percentage values of live and dead cells were calculated.

Assay [2] deals with Panc-1 cells. The assay can be described thus: Cell cycle analysis by flow cytometry. The following applies: serum starved 72 h; 24 h to 60 h time points. How it is done:
Flow cytometry was used to determine the cell cycle phases (Plano et al., 2016, J. Med. Chem. 1946-1959). In brief, Panc-1 cells were serum starved for 72 h, followed by treatment with different doses of AS-10 in 10% serum containing media for different time points. Treated cells were fixed in 70% cold ethanol at the end of each time point. Cells were fixed for a minimum of 4 h at 4° C. Following fixation, cells were washed with 1×PBS and were re-suspended in Propidium iodide (PI) staining solution (0.1% (v/v) triton X-100, 20 mg DNAse-free RNAse A and 2 mg of PI in 100 mL PBS). Cells were incubated in the staining solution for 15 minutes at room temperature and then analyzed by a BD FACS Calibur (BD Biosciences) for total DNA content. Modfit software (BD Biosciences) was used to obtain the histograms.

For `CC(=O)Oc1ccccc1C(=O)/N=C1\[Se]CCN1C(=O)c1ccccc1OC(C)=O` [AS-10, 2-((3-(2-acetoxybenzoyl)-1,3-selenazolidin-2-ylidene)carbamoyl)phenyl acetate], in the assay with BxPC3 cells, the IC50 (commonly the concentration at which inhibition is half-maximal) lay in the range of 1000 to 5000 nM. The dead cells in the assay on Panc-1 cells [1] is about 10%. The cell cycle effect entry in the assay on Panc-1 cells [2] is “cell cycle arrest in G1 and G2/M phase and total inhibition of S phase”.
